Results: the supplement of paper PMC13380429

What was measured:
Details in all cases: 72 h
[1] = tested on: U2OS; test: drug sensitivity score (DSS) for viability; higher = more toxic; extreme values may be limits of the assay
[2] = tested on: Calu-3; test: as above
[3] = tested on: HepG2; test: as above
[4] = tested on: Vero E6; test: as above
[5] = tested on: Caco-2; test: as above
[6] = tested on: U2OS; test: cell viability relative to DMSO; higher = less toxic
[7] = tested on: Calu-3; test: as above
[8] = tested on: HepG2; test: as above
[9] = tested on: Vero E6; test: as above
[10] = tested on: Caco-2; test: as above
[11] = tested on: U2OS; test: relative viability EC50 (midpoint between 100% and the lowest measured viability); higher = less toxic
[12] = tested on: Calu-3; test: as above
[13] = tested on: HepG2; test: as above
[14] = tested on: Vero E6; test: as above
[15] = tested on: Caco-2; test: as above

Row | Structure (SMILES) | drug sensitivity score [1] | drug sensitivity score [2] | drug sensitivity score [3] | drug sensitivity score [4] | drug sensitivity score [5] | cell viability ([6]; 1 nM) [%] | cell viability ([6]; 10 nM) [%] | cell viability ([6]; 100 nM) [%] | cell viability ([6]; 1000 nM) [%] | cell viability ([6]; 10000 nM) [%] | cell viability ([7]; 1 nM) [%] | cell viability ([7]; 10 nM) [%] | cell viability ([7]; 100 nM) [%] | cell viability ([7]; 1000 nM) [%] | cell viability ([7]; 10000 nM) [%] | cell viability ([8]; 1 nM) [%] | cell viability ([8]; 10 nM) [%] | cell viability ([8]; 100 nM) [%] | cell viability ([8]; 1000 nM) [%] | cell viability ([8]; 10000 nM) [%] | cell viability ([9]; 1 nM) [%] | cell viability ([9]; 10 nM) [%] | cell viability ([9]; 100 nM) [%] | cell viability ([9]; 1000 nM) [%] | cell viability ([9]; 10000 nM) [%] | cell viability ([10]; 1 nM) [%] | cell viability ([10]; 10 nM) [%] | cell viability ([10]; 100 nM) [%] | cell viability ([10]; 1000 nM) [%] | cell viability ([10]; 10000 nM) [%] | relative viability EC50 [11] [µM] | relative viability EC50 [12] [µM] | relative viability EC50 [13] [µM] | relative viability EC50 [14] [µM] | relative viability EC50 [15] [µM]
1 | OC[C@H]1O[C@H](O)C[C@@H](O)[C@@H]1O [2-deoxyglucose] | 0 | 0 | 0 | 0 | 0 | 100 | 102 | 101 | 99.4 | 98 | 108 | 98.9 | 111 | 100 | 95.5 | 93.2 | 96 | 97.3 | 106 | 97.4 | 93.4 | 102 | 90.6 | 100 | 110 | 102 | 66.9 | 105 | 86.9 | 101 | > 10 | > 10 | > 10 | > 10 | > 10
2 | CC(=O)OC[C@H]1O[C@@](COC(C)=O)(O[C@H]2O[C@H](COC(C)=O)[C@@H](OC(C)=O)[C@H](OC(C)=O)[C@H]2OC(C)=O)[C@@H](OC(C)=O)[C@@H]1OC(C)=O [sucrose-octaacetate] | 0 | 0 | 0 | 0 | 0 | 95.1 | 89.6 | 97.7 | 102 | 102 | 102 | 96.3 | 99 | 103 | 108 | 93 | 100 | 102 | 103 | 109 | 98.5 | 100 | 94.1 | 94.6 | 110 | 102 | 99.6 | 97 | 93 | 98.4 | > 10 | > 10 | > 10 | > 10 | > 10
3 | Clc1cccc(-c2nnnn2Cc2cccnc2)c1Cl | 0 | 0 | 0 | 0 | 0 | 97 | 95.9 | 94.2 | 99.3 | 94.9 | 99.9 | 105 | 96.2 | 98.2 | 97.2 | 101 | 97.5 | 105 | 101 | 103 | 106 | 103 | 104 | 99.2 | 102 | 97.6 | 104 | 99.1 | 98.4 | 91.1 | > 10 | > 10 | > 10 | > 10 | > 10
4 | Cn1nnc2c(C(N)=O)ncn2c1=O [temozolomide] | 0 | 0 | 0 | 0 | 0 | 98 | 103 | 92.3 | 96.8 | 95 | 97.6 | 106 | 102 | 94.5 | 98.6 | 112 | 99.6 | 104 | 93.5 | 114 | 99.4 | 97.5 | 95.9 | 98.2 | 102 | 90.3 | 97.3 | 96 | 106 | 99.3 | > 10 | > 10 | > 10 | > 10 | > 10
5 | CCO[C@@H](Cc1ccc(OCCn2c(C)ccc2-c2ccc(SC)cc2)cc1)C(=O)O [saroglitazar] | 0 | 0 | 0 | 1.2 | 0 | 102 | 89.1 | 101 | 97.5 | 93.9 | 93.3 | 80.3 | 97.6 | 89.9 | 105 | 97.3 | 95.5 | 88.4 | 97.1 | 104 | 99.5 | 96.3 | 88.1 | 87.8 | 95.2 | 92 | 92.8 | 122 | 93.7 | 100 | > 10 | > 10 | > 10 | > 10 | > 10
6 | CCCCCCCCCCCCCCCCNc1ccc(C(=O)O)cc1 [cetaben] | 0 | 0 | 0 | 0 | 0 | 99.5 | 97.8 | 102 | 99.2 | 98.5 | 99.5 | 101 | 98.5 | 90.8 | 95.4 | 101 | 111 | 97.3 | 105 | 99.5 | 99.8 | 99.2 | 94.4 | 98.8 | 101 | 99.2 | 97.4 | 109 | 93.7 | 103 | > 10 | > 10 | > 10 | > 10 | > 10
7 | COc1cc2c(NC3CCN(C)CC3)nc(N3CCCN(C)CC3)nc2cc1OCCCN(C)C [UNC0224] | 0 | 0 | 0 | 0 | 0 | 103 | 96 | 104 | 101 | 101 | 143 | 103 | 94.2 | 97.9 | 98.9 | 90.3 | 97.4 | 98.8 | 101 | 95.9 | 96.7 | 102 | 101 | 102 | 98.1 | 99.3 | 101 | 89.9 | 95.8 | 103 | > 10 | > 10 | > 10 | > 10 | > 10
8 | NCC(CS(=O)(=O)O)c1ccc(Cl)cc1 (stereo not given) [saclofen] | 0 | 0 | 0 | 0 | 0.6 | 93.6 | 99.7 | 95.3 | 96.9 | 104 | 96.2 | 91.9 | 94.8 | 86.9 | 105 | 107 | 107 | 105 | 105 | 98 | 106 | 98.6 | 103 | 101 | 103 | 100 | 101 | 91 | 88.7 | 95.5 | > 10 | > 10 | > 10 | > 10 | > 10
9 | Nc1ncnc2nc(-c3ccc(N4CCOCC4)nc3)cc(-c3cccc(Br)c3)c12 [ABT-702] | 0 | 0 | 0 | 0 | 0 | 106 | 103 | 104 | 99.8 | 101 | 103 | 83.3 | 112 | 95.3 | 100 | 104 | 96.4 | 96.5 | 108 | 89.6 | 96.1 | 100 | 95.2 | 94.4 | 88.1 | 107 | 99.9 | 102 | 104 | 93.4 | > 10 | > 10 | > 10 | > 10 | > 10
10 | c1ccc(CCCN2CCN(CCOC(c3ccccc3)c3ccccc3)CC2)cc1 | 0 | 0 | 0.2 | 0 | 0.3 | 101 | 97 | 100 | 98.1 | 97.8 | 102 | 98.4 | 103 | 95.9 | 99.7 | 92.4 | 91.6 | 99.2 | 99.7 | 85.1 | 114 | 104 | 106 | 96.5 | 95.9 | 104 | 95 | 94.4 | 92.9 | 85.6 | > 10 | > 10 | > 10 | > 10 | > 10
11 | O=C(Oc1cc(S(=O)(=O)c2ccccc2)ccc1[N+](=O)[O-])c1ccc(Cl)cc1 | 0 | 0 | 0 | 0 | 0 | 96.5 | 94.9 | 97.4 | 94.6 | 96.9 | 101 | 97.2 | 92.5 | 94.8 | 106 | 100 | 97.2 | 98.4 | 97.2 | 102 | 97.5 | 104 | 94.7 | 101 | 106 | 103 | 93.4 | 92.3 | 87.5 | 103 | > 10 | > 10 | > 10 | > 10 | > 10
12 | Cc1cccn2c(=O)c(/C=C(\C#N)c3nc4ccccc4s3)c(Oc3ccc(F)cc3)nc12 | 0 | 0 | 0 | 0 | 0 | 98.3 | 98.2 | 98.2 | 103 | 99.1 | 105 | 97.9 | 101 | 104 | 106 | 103 | 99.6 | 100 | 99.3 | 102 | 103 | 100 | 98.9 | 98.7 | 95.8 | 105 | 96.3 | 113 | 115 | 119 | > 10 | > 10 | > 10 | > 10 | > 10
13 | Nc1nc(O)c2ncn(CCC(CO)CO)c2n1 [penciclovir] | 0 | 0 | 0 | 0 | 0 | 99.3 | 95.9 | 93.9 | 101 | 104 | 102 | 90.8 | 92 | 94.1 | 99.5 | 89.8 | 94.3 | 101 | 94.6 | 102 | 100 | 94.3 | 90 | 95.1 | 102 | 98.7 | 109 | 102 | 103 | 102 | > 10 | > 10 | > 10 | > 10 | > 10
14 | COc1ccc(/C=C/CCCCOc2ccc(C(=O)c3cccc(C(=O)O)c3)cc2CCC(=O)O)cc1 | 0 | 0 | 0 | 0 | 0 | 95.8 | 96.2 | 96.3 | 100 | 98.7 | 102 | 84.6 | 102 | 100 | 111 | 102 | 95.3 | 109 | 110 | 106 | 93.9 | 96.3 | 100 | 94.4 | 99 | 96.6 | 94 | 102 | 102 | 95.3 | > 10 | > 10 | > 10 | > 10 | > 10
